Experimental data: PMC3020970, “K70Q Adds High-Level Tenofovir Resistance to “Q151M Complex” HIV Reverse Transcriptase through the Enhanced Discrimination Mechanism” (PLoS ONE, 2011)
Values joined by “and” are separate entries in the source; they are usually repeats but may differ in a detail not shown here. Equal values may be shown once.

Tests used:
[1] = tested on: HIV-1 NL4-3 strain (WT); assay: microbe, parasite or virus in culture; assay type: cell-based; conditions: Human immunodeficiency virus 1, NL43; WT, MAGIC-5 cells, Table S1; read-out: EC50
Description: (§1) Susceptibilities to various RT inhibitors were determined using the MAGIC-5 cells which are HeLa cells stably transfected with a β-galactosidase gene under the control of an HIV long terminal repeat promoter, and with vectors that express the CD4 receptor and the CCR5 co-receptor under the control of the CMV promoter as described previously. Briefly, MAGIC-5 cells were infected with diluted virus stock (100 blue forming units) in the presence of increasing concentrations of RT inhibitors, cultured for 48 h, fixed, and stained with X-Gal (5-bromo-4-chloro-3-indolyl-β-D-galacto-pyranoside). The stained cells were counted under a light microscope.

[2] = tested on: HIV-1 clinical isolate 1 (Q151Mc-containing); assay: Single-cycle drug susceptibility assay (MAGIC-5 cells), clinical isolate 1; assay type: cell-based; conditions: Human immunodeficiency virus 1; clinical isolate 1, MAGIC-5 cells
Description: (§2) HIV was isolated from fresh plasma immediately after collection of clinical samples from study participants at the outpatient clinic of the AIDS Clinical Center (ACC), International Medical Center of Japan. The Institutional Review Board approved this study (IMCJ-H13-80) and a written consent was obtained from all participants.
as §1

[3] = tested on: HIV-1 clinical isolate 2 (Q151Mc + K70Q); assay: Single-cycle drug susceptibility assay (MAGIC-5 cells), clinical isolate 2; assay type: cell-based; conditions: Human immunodeficiency virus 1; clinical isolate 2, MAGIC-5 cells
Description: as §2, §1

[4] = tested on: HIV-1 WT; assay: Single-cycle drug susceptibility assay (MAGIC-5 cells), recombinant WT clone; assay type: cell-based; conditions: Human immunodeficiency virus 1, Table S2
Description: (§3) The NL4-3-based molecular clone was constructed by replacing the pol-coding region with the HIV-1 BH10 strain. […] Each molecular clone was transfected into COS-7 cells. Cells were grown for 48 h, and culture supernatants were harvested and stored at −80°C until use.
as §1

[5] = tested on: HIV-1 K70E; assay: Single-cycle drug susceptibility assay (MAGIC-5 cells); assay type: cell-based
Description: as §3, §1

[6] = tested on: HIV-1 K70G; assay: as above; assay type: cell-based
Description: as §3, §1

[7] = tested on: HIV-1 K70N; assay: as above; assay type: cell-based
Description: as §3, §1

[8] = tested on: HIV-1 K70Q; assay: as above; assay type: cell-based
Description: as §3, §1

[9] = tested on: HIV-1 K70R; assay: as above; assay type: cell-based
Description: as §3, §1

[10] = tested on: HIV-1 K70T; assay: as above; assay type: cell-based
Description: as §3, §1

[11] = tested on: HIV-1 Q151Mc/K70E; assay: as above; assay type: cell-based
Description: as §3, §1

[12] = tested on: HIV-1 Q151Mc/K70G; assay: as above; assay type: cell-based; conditions: Human immunodeficiency virus 1, MAGIC-5; Q151Mc/K70G
Description: as §3, §1

[13] = tested on: HIV-1 Q151Mc/K70N; assay: as above; assay type: cell-based
Description: as §3, §1

[14] = tested on: HIV-1 Q151Mc/K70Q; assay: as above; assay type: cell-based; conditions: Human immunodeficiency virus 1, MAGIC-5; Q151Mc/K70Q
Description: as §3, §1

[15] = tested on: HIV-1 Q151Mc/K70R; assay: as above; assay type: cell-based
Description: as §3, §1

[16] = tested on: HIV-1 Q151Mc/K70T; assay: as above; assay type: cell-based
Description: as §3, §1

[17] = tested on: HIV-1 Q151Mc; assay: as above; assay type: cell-based; conditions: Human immunodeficiency virus 1, MAGIC-5
Description: as §3, §1

[18] = target: T1, HIV-1 RT K70Q (Human immunodeficiency virus type 1 group M subtype B, UniProt P03366, K669Q); assay: Pre-steady state kinetics of binding and incorporation; assay type: biochemical; conditions: K70Q RT
T1 construct: made in house; host or cells: Escherichia coli BL21
Description: (§4) The reactions were quenched at various times (10 ms to 5 s) by adding EDTA to a final concentration of 50 mM. The amounts of product (P18-dAMP) were quantitated and fit to the following burst equation: [drawing 1] (1) where A is the amplitude of the burst phase that represents the RT-DNA complex at the start of the reaction, k obs is the observed burst rate constant for dNTP incorporation, k ss is the steady state rate constant, and t is the reaction time. The rate constant of the linear phase (kcat) can be estimated by dividing the slope of the linear phase by the enzyme concentration. The active site concentration and template/primer binding affinity (KD-DNA) were determined by plotting the amplitude (A) against the concentration of template/primer. The data were fit using non-linear regression to a quadratic equation: [drawing 2] (2) where KD is the dissociation constant for the RT-DNA complex, and [RT] is the concentration of active polymerase molecules. Subsequent biochemical experiments were performed using corrected active site concentrations, [43].
(§5) HIV-1 RT (50 nM active sites) was pre-incubated with 50 nM T31/P18 in one syringe (Syringe A), whereas varying concentrations of dNTP and 10 mM MgCl2 were kept in another syringe (Syringe B). The solutions were rapidly mixed to initiate reactions, which were subsequently quenched at various times (5 ms to 10 s) by adding EDTA to a final concentration of 50 mM. The products from each quenched reaction were resolved, quantitated, and plotted as described above. The data were fit by non-linear regression to the burst equation (Eq 1).
(§6) To obtain the dissociation constant KD-dNTP for dNTP binding to the RT-DNA complex, the observed burst rates (kobs) were fit to the hyperbolic equation (Eq. 3) using nonlinear regression: [drawing 3] (3) where kpol is the optimal rate of dNTP incorporation.

[19] = target: T2, HIV-1 RT K70Q/Q151Mc (Human immunodeficiency virus type 1 group M subtype B, UniProt P03366, A661V/F676L/F715Y/K669Q/Q750M/V674I); assay: as above; assay type: biochemical; conditions: K70Q/Q151Mc RT
T2 construct: made in house; host or cells: Escherichia coli BL21
Description: as §4, with “Determination of active site concentrations in the different preparations of WT and mutant RTs were performed using pre-steady state burst experiments. […] The reactions” for “The reactions”
as §5, §6
(§7) The kinetics of TFV incorporation by the WT and mutant enzymes were carried out in a manner similar to that employed for natural dNTP substrate except the time of reactions. It was noted that the mutant enzymes required longer time to incorporate TFV compared to the WT HIV-1 RT (detailed in the Results section).

[20] = target: T3, HIV-1 RT Q151Mc (Human immunodeficiency virus type 1 group M subtype B, UniProt P03366, A661V/F676L/F715Y/Q750M/V674I); assay: as above; assay type: biochemical
T3 construct: made in house; host or cells: Escherichia coli BL21
Description: as §4, with “Determination of active site concentrations in the different preparations of WT and mutant RTs were performed using pre-steady state burst experiments. […] The reactions” for “The reactions”
as §5, §6, §7

[21] = target: T4, HIV-1 RT WT (Human immunodeficiency virus type 1 group M subtype B, UniProt P03366); assay: as above; assay type: biochemical
T4 construct: made in house; host or cells: Escherichia coli BL21
Description: as §4, with “Determination of active site concentrations in the different preparations of WT and mutant RTs were performed using pre-steady state burst experiments. […] The reactions” for “The reactions”
as §5, §6, §7

Cc1cn([C@H]2C=C[C@@H](CO)O2)c(=O)[nH]c1=O [d4T, stavudine]
EC50 [1]: 2 ± 0.55 µM | EC50 [2]: 18.3 ± 1.53 µM | EC50 [3]: > 100 µM | EC50 [4]: 2.6 ± 0.23 µM | EC50 ([5]; Human immunodeficiency virus 1, MAGIC-5, K70E): 16 ± 2.7 µM | Fold increase in EC50 compared to HIV-1 WT ([5]; K70E vs WT): (6.2) fold | EC50 ([6]; Human immunodeficiency virus 1, MAGIC-5, K70G): 4.3 ± 0.26 µM | Fold increase in EC50 compared to HIV-1 WT ([6]; K70G vs WT): (1.7) fold | EC50 ([7]; Human immunodeficiency virus 1, MAGIC-5, K70N): 3.4 ± 0.25 µM | Fold increase in EC50 compared to HIV-1 WT ([7]; K70N vs WT): (1.3) fold | EC50 ([8]; Human immunodeficiency virus 1, MAGIC-5, K70Q): 3 ± 0.21 µM | Fold increase in EC50 compared to HIV-1 WT ([8]; K70Q vs WT): (1.2) fold | EC50 ([9]; Human immunodeficiency virus 1, MAGIC-5, K70R): 4.3 ± 0.57 µM | Fold increase in EC50 compared to HIV-1 WT ([9]; K70R vs WT): (1.7) fold | EC50 ([10]; Human immunodeficiency virus 1, MAGIC-5, K70T): 2.2 ± 0.17 µM | Fold increase in EC50 compared to HIV-1 WT ([10]; K70T vs WT): (0.8) fold | EC50 ([11]; Human immunodeficiency virus 1, MAGIC-5, Q151Mc/K70E): 32 ± 3.6 µM | Fold increase in EC50 compared to HIV-1 Q151Mc ([11]; Q151Mc/K70E vs Q151Mc): (1.3) fold | EC50 [12]: 115 ± 5.1 µM | EC50 ([13]; Human immunodeficiency virus 1, MAGIC-5, Q151Mc/K70N): 25 ± 4 µM | Fold increase in EC50 compared to HIV-1 Q151Mc ([13]; Q151Mc/K70N vs Q151Mc): (1) fold | EC50 [14]: 110 ± 6.6 µM | EC50 ([15]; Human immunodeficiency virus 1, MAGIC-5, Q151Mc/K70R): 44 ± 4.5 µM | Fold increase in EC50 compared to HIV-1 Q151Mc ([15]; Q151Mc/K70R vs Q151Mc): (1.8) fold | EC50 ([16]; Human immunodeficiency virus 1, MAGIC-5, Q151Mc/K70T): 16 ± 2.7 µM | Fold increase in EC50 compared to HIV-1 Q151Mc ([16]; Q151Mc/K70T vs Q151Mc): (0.6) fold | EC50 [17]: 25 ± 2.3 µM

Nc1ncnc2c1ncn2[C@H]1C[C@H](O)[C@@H](COP(=O)(O)OP(=O)(O)OP(=O)(O)O)O1 [dATP]
k pol ([18]; T31/P18, 37°C): 8.4 ± 0.4 s⁻¹ | Kd ([18]; binding to RT-DNA complex): 3.8 ± 0.6 µM | k pol/Kd [19]: 2.9e+06 M⁻¹ s⁻¹ and 2.9e+06 ± 300000 M⁻¹ s⁻¹ | k pol ([19]; T31/P18, 37°C): 14.6 s⁻¹ and 14.6 ± 1.6 s⁻¹ | Kd ([19]; binding to RT-DNA complex): 5 ± 0.07 µM | k pol/Kd [20]: 3.3e+06 M⁻¹ s⁻¹ and 3.3e+06 ± 300000 M⁻¹ s⁻¹ | k pol ([20]; T31/P18, 37°C): 17.9 s⁻¹ and 17.9 ± 0.4 s⁻¹ | Kd ([20]; binding to RT-DNA complex): 5.4 ± 0.5 µM | k pol/Kd [21]: 2.4e+06 M⁻¹ s⁻¹ and 2.4e+06 ± 200000 M⁻¹ s⁻¹ | k pol ([21]; T31/P18, 37°C): 6.3 s⁻¹ and 6.3 ± 0.5 s⁻¹ | Kd ([21]; binding to RT-DNA complex): 2.6 ± 0.1 µM
